In US20110071124A1, “Compounds that Inhibit Production of sAPPB and AB and Uses Thereof” (The Trustees of Columbia University in the City of New York, priority 2008, published 2011):

Tested on: Aβ40 in Lenti-APPsw infected primary cortical neurons
Assay: Aβ40 ELISA in Lenti-APPsw infected primary cortical neurons
Type: cell-based, mouse
Settings: 24 hours
Protocol: FIG. 15A-D. LDN-0057228 reduces Aβ40 and sAPPβ in primary neurons. DIV-14 primary cortical neurons from wild-type mice were incubated for 24 hours with primary culture media containing lentivirus harboring APPsw. After infection, neurons were incubated for 48 hours with 1:1 fresh to conditioned media to allow for APP expression. Neurons were then treated with LDN-0057228 at 20 μM for 24 hours in triplicate. A) Media was collected for Aβ40 ELISA. Raw Aβ40 values were normalized to APP to control for variations in lentiviral infection efficiency. B) Cell lysates were probed with 6E10 antibody to visualize the transduced full-length APP. C) sAPPβ from neuron culture media was immunoprecipitated with sβsw antibody and probed with LN27. D) Quantification of sAPPβ, normalized to APP. Data in A) and […]) represent mean+s.d. of 3 wells. Bands from B) and C) were quantified using ImageJ software.
FIG. 16A-B. CNS-2 and LDN-0057228 reduce Aβ40 in primary neurons. DIV-14 primary cortical neurons from wild-type mice were incubated for 24 hours with primary culture media containing lentivirus harboring APPsw. After infection, neurons were incubated for 48 hours with 1:1 fresh to conditioned media to allow for APP expression. Neurons were then treated for 24 hours with the indicated compound and concentration. A) Media was collected for Aβ40 ELISA. Raw Aβ40 values were normalized to APP to control for variations in lentiviral infection efficiency. B) Cell lysates were probed with 6E10 antibody to visualize the transduced full-length APP.
Lenti-APPsw infected primary cortical neurons were selected for the initial round of physiological experiments due to the relatively large batches of wild-type primary cortical neurons that were routinely harvested in the lab, the ease of lentiviral packaging. Primary cortical neurons were harvested from wild-type P0 pups using established protocols.
The Lenti-APPsw vector was co-transfected into HEK293 T cells with ViraPower packaging mix (Invitrogen) to generate the lentivirus. Lentiviral-mediated transduction of APPsw in primary neurons was performed by adding neuron primary culture media containing the lentiviral particles to wild-type DIV-14 primary neurons (FIG. 14). After 24 hours, neurons were incubated with media for 72 hours prior to collecting for Aβ40 measurement. Two batches of virus (LV-1 and LV-2) were tested, showing that there is batch-to-batch variation in the viral titer.
Using this experimental paradigm, LDN-0057228 was tested at 20 μM concentration to confirm the sAPPβ- and Aβ-lowering activity of the compound (FIG. 15). The protocol was modified slightly to allow for 24-hour compound treatment. […]

Which “reduction in Aβ40 levels” value (20 μM, normalized to APP) does the source give for `Fc1ccc(C(OCCN2CCC[C@H]2CNCCc2ccccc2)c2ccc(F)cc2)cc1` [LDN-0057228] here?
The value was 75%.

With `O=C(CCc1ccccc1)NC[C@@H]1CCCN1CCOC(c1ccc(F)cc1)c1ccc(F)cc1` [CNS-2] as the compound, how does the “reduction in Aβ40” value (5 μM) read?
Its value is > 80%.
